Source: ChEMBL document CHEMBL4043150, “Discovery of novel pyrazolo[1,5-a]pyridine-based EP1 receptor antagonists by scaffold hopping: Design, synthesis, and structure-activity relationships” (Bioorg Med Chem Lett, 2017)
The source made the active and inactive calls. The calls are words filed in the database; no cut-off is given here.

Columns and labels:
[1] = target: T1, Prostaglandin E2 receptor EP1 subtype (Rattus norvegicus) (UniProt P70597); test: Antagonist activity at rat His-tagged EP1 receptor expressed in African green monkey COS1 cells assessed as reduction in PGE2-induced increase in intracellular calcium level at 10 uM preincubated for 60 secs followed by PGE2 addition measured for 60 secs by Fluo 4-AM dye-based fluorescence assay relative to control; type: functional, cell-based
T1 sequence (whole entry): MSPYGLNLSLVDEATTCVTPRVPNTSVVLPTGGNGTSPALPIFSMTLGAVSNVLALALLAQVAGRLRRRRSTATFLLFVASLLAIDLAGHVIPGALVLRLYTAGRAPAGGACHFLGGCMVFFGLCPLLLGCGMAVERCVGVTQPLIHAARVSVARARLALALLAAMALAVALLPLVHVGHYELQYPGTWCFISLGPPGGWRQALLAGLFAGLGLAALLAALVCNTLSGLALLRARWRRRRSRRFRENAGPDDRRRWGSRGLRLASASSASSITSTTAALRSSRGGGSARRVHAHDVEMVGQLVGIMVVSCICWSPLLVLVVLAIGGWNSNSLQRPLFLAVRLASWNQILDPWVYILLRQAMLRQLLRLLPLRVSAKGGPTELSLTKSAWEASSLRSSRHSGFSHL

[2] = Total clearance in rat at 1 mg/kg, iv; type: ADME, organism-based; details: in vivo
[3] = tested on: Rattus norvegicus; test: Suppression of 17-PTP-induced bladder contraction in Wistar rat assessed as change in intravesical pressure at 1 mg/kg, iv pretreated for 5 mins followed by 17-PTP administration for 9 times with 30 mins time interval up to 245 mins post dose; type: functional, organism-based
[4] = AUC (0 to infinity) in rat at 1 mg/kg, iv; type: ADME, organism-based; design: dose 1 mg/kg, time infinity, route intravenous; details: in vivo
[5] = Volume of distribution at steady state in rat at 1 mg/kg, iv; type: ADME, organism-based; details: in vivo, read-out: Vdss
[6] = Initial plasma concentration in rat at 1 mg/kg, iv; type: ADME, organism-based
[7] = target: T2, Prostaglandin E2 receptor EP1 subtype (Rattus norvegicus, UniProt P70597); test: Antagonist activity at rat His-tagged EP1 receptor expressed in African green monkey COS1 cells assessed as reduction in PGE2-induced increase in intracellular calcium level preincubated for 60 secs followed by PGE2 addition measured for 60 secs by Fluo 4-AM dye-based fluorescence assay; type: functional, cell-based
T2 sequence (P70597 whole entry): T1 sequence (whole entry)

[8] = Aqueous solubility of compound; type: physicochemical; details: buffer

IC50 [7] [µM]	Compound	other results
0.64	O=C(O)c1cccc(Cc2c(-c3ccccc3Cl)nn3cc(Cl)ccc23)n1	–
1.1	CC(=O)c1ccc2c(Cc3cccc(C(=O)O)n3)c(-c3ccccc3)nn2c1	–
0.48	O=C(O)c1cccc(Cc2c(-c3cccc(Cl)c3)nn3cc(Cl)ccc23)n1	–
0.2	CC(C)Cc1nn2cc(Cl)ccc2c1Cc1cccc(C(=O)O)n1	–
0.016	O=C(O)c1cccc(Cc2c(-c3ccccc3)nn3cc(C(F)(F)F)ccc23)n1	clearance [2]: 3.84 mL/min/kg; Activity [3]: Active; AUC(0-inf) [4]: 4360 ng·h/mL; Vd [5]: 0.473 L/kg; C0 [6]: 2430 ng/mL
0.38	O=C(O)c1cccc(Cc2c(-c3ccccc3)nn3cc(F)ccc23)n1	–
0.74	O=C(O)c1cccc(Cc2c(N3CCOCC3)nn3cc(Cl)ccc23)n1	–
1.4	O=C(O)c1cccc(Cc2c(N3CCCCCC3)nn3cc(Cl)ccc23)n1	–
1.2	O=C(O)c1cccc(Cc2c(C3CCCCC3)nn3cc(Cl)ccc23)n1	–
5.4	COc1ccc(-c2nn3cc(Cl)ccc3c2Cc2cccc(C(=O)O)n2)cc1	–
1.8	O=C(O)c1cccc(Cc2c(N3CCCC3)nn3cc(Cl)ccc23)n1	–
0.26	O=C(O)c1cccc(Cc2c(N3CCSCC3)nn3cc(Cl)ccc23)n1	–
0.29	C=C(C)c1ccc2c(Cc3cccc(C(=O)O)n3)c(-c3ccccc3)nn2c1	–
1.2	O=C(O)c1cccc(Cc2c(-c3ccco3)nn3cc(Cl)ccc23)n1	–

Further lines, the compound ahead of its results:

Compound	IC50 [7] [µM]	other results
COc1cccc2c(Cc3cccc(C(=O)O)n3)c(-c3ccccc3)nn12	–	inhibition [1]: 33%
O=C(O)c1cccc(Cc2c(-c3ccccc3)nn3cc(Cl)ccc23)n1	–	clearance [2]: 10.7 mL/min/kg; Activity [3]: Active; AUC(0-inf) [4]: 1590 ng·h/mL; Vd [5]: 0.489 L/kg; C0 [6]: 2750 ng/mL
O=C(O)c1cccc(Cc2c(-c3ccoc3)nn3cc(Cl)ccc23)n1	0.13	–
O=C(O)c1cccc(Cc2c(C3CC3)nn3cc(Cl)ccc23)n1	1.5	–
O=C(O)c1cccc(Cc2c(-c3ccccc3)nn3cc(C4CC4)ccc23)n1	0.19	–
COc1ccc2c(Cc3cccc(C(=O)O)n3)c(-c3ccccc3)nn2c1	–	clearance [2]: 6.12 mL/min/kg; Activity [3]: Active; AUC(0-inf) [4]: 2780 ng·h/mL; solubility [8]: > 75 µM; Vd [5]: 0.45 L/kg; C0 [6]: 2660 ng/mL
O=C(O)c1cccc(Cc2c(-c3ccc(Cl)cc3)nn3cc(Cl)ccc23)n1	1.1	–
O=C(O)c1cccc(Cc2c(-c3ccsc3)nn3cc(Cl)ccc23)n1	0.11	–
CS(=O)(=O)c1ccc2c(Cc3cccc(C(=O)O)n3)c(-c3ccccc3)nn2c1	5.4	–
COc1ccccc1-c1nn2cc(Cl)ccc2c1Cc1cccc(C(=O)O)n1	–	inhibition [1]: 29%
COc1ccc2c(Cc3cncc(C(=O)O)n3)c(-c3ccccc3)nn2c1	4.5	–
O=C(O)c1cccc(Cc2c(-c3cccs3)nn3cc(Cl)ccc23)n1	1.1	–
COc1cccc(-c2nn3cc(Cl)ccc3c2Cc2cccc(C(=O)O)n2)c1	0.8	–
COc1ccn2nc(-c3ccccc3)c(Cc3cccc(C(=O)O)n3)c2c1	9.1	–
N#Cc1ccc2c(Cc3cccc(C(=O)O)n3)c(-c3ccccc3)nn2c1	0.44	–
O=C(O)c1cccc(Cc2c(-c3ccccc3)nn3ccccc23)n1	2.3	–
Cc1cc(C(=O)O)nn1Cc1cc(Cl)cc2cc(-c3ccccc3)nn12	–	solubility [8]: > 75 µM
